According to patent publication US5116815A, “PF 1022 substance, method of treating helminthic parasitic infection and anthelmintic composition” (Meiji Seika Kaisha Ltd., priority 1989, dated 1992):
Several values for one entry are separate records, joined by “and”; a condition that tells them apart may be missing. Identical values can stand only once.

What was measured:
[1] = Classification by basicity, acidity or neutrality; type: physicochemical
[2] = tested on: feline hookworms (Ancylostoma tubaeforme); test: Anthelmintic activity against cat hookworms; type: in vivo; settings: cats
Description: The PF 1022 substance was evaluated for its anthelmintic effect on feline hookworms (Ancylostoma tubaeforme) by orally administering the substance once to 12 cats found to be infected with said worms by scatoscopy.
The infected cats were divided into three groups of 4 animals and respectively given 0.2 mg/kg, 1 mg/kg and 5 mg/kg of the substance admixed as such with a small portion of the ordinary feed. The observation items were the number of worms eliminated during 7 days following administration and the number of remaining worms found upon autopsy 7 days after administration.

[3] = tested on: small intestinal hairworms (Trichostrongylus colubriformis); test: Sheep digestive tract nematodes, worms remaining in the intestinal tract; type: in vivo; settings: for Number of worms remaining in At autopsy: autopsy 7 days after administration, mean of 6 animals
Description: The PF 1022 substance was evaluated for its anthelmintic effect in sheep mixedly infected with fourth stomachworms (Ostertaqia circumcincta) and small intestinal hairworms (Trichostrongylus colubriformis) by administering it orally to 24 sheep artificially infected with said two worm species.
The infected sheep were divided into 4 groups of 6 animals, which were respectively given 1 mg/kg, 5 mg/kg, 10 mg/kg and 0 mg/kg (control) of the substance suspended in 0.5% CMC, via a stomach catheter. The observation items were the number of parasite eggs per gram of feces (EPG) before administration, the EPG 7 days after administration, and the number of worms remaining in the fourth stomach and that of worms remaining in the intestinal tract as found upon autopsy 7 days after administration.
Each numerical value given is the mean of 6 animals.

[4] = tested on: large intestinal roundworms (Ascaridia galli); test: Chicken large intestinal roundworms, administration in feed for 3 weeks; type: in vivo; settings: chickens; for Number of eggs before starting administration: baseline
Description: The PF 1022 substance was evaluated for its anthelmintic effect on 9 chickens found, by scatoscopy, to be infected with large intestinal roundworms (Ascaridia galli) by administering it in admixture with the feed.
The chickens were divided into three groups of 3 animals, which served as the 1 ppm, 5 ppm and 10 ppm groups. The feed containing the PF 1022 substance in each concentration mentioned above was given to the chickens for 3 weeks. Parasite eggs in feces were counted at one-week intervals in terms of EPG and worms eliminated were counted daily. At the end of the administration period, the chickens were sacrificed and autopsied and the worms remaining therein were counted.

[5] = tested on: hookworms (Ancylostoma caninum); test: Anthelmintic effect on canine hookworms; type: in vivo; settings: dog, single oral dose 5 mg/kg
Description: (§1) The PF 1022 substance was evaluated for its anthelmintic effect in dogs by orally administering it to dogs found to be infected with roundworms (Toxocara canis), hookworms (Ancylostoma caninum) and whipworms (Trichuris vulpisl), respectively, by scatoscopy.
The substance was orally administered once at the dose of 5 mg/kg to a dog infected with the roundworms or hookworms by admixing the substance with a small portion of the ordinary feed, and the worms eliminated and those remaining in the dog during 7 days following administration were counted.

[6] = tested on: whipworms (Trichuris vulpisl); test: Anthelmintic effect on canine whipworms; type: in vivo; settings: dog; for whipworms eliminated / whipworms remaining: 7 days
Description: as §1
Thus, the elimination was 100% in both cases. On the other hand, one of two dogs infected with the above-mentioned whipworms was given orally one single dose of 5 mg/kg and the other 10 mg/kg, and the worms eliminated and those remaining uneliminated during 7 days following administration were counted. […] At 10 mg/kg, 22 whipworms were eliminated while none were found remaining uneliminated. Thus, the elimination was 100%.

CC(C)C[C@H]1C(=O)O[C@H](Cc2ccccc2)C(=O)N(C)[C@@H](CC(C)C)C(=O)O[C@H](C)C(=O)N(C)[C@@H](CC(C)C)C(=O)O[C@H](Cc2ccccc2)C(=O)N(C)[C@@H](CC(C)C)C(=O)O[C@H](C)C(=O)N1C [PF 1022 substance]
Classification by basicity, acidity or neutrality [1]: Neutral substance
% Elimination ([2]; single oral dose 1 mg/kg, 1 mg/kg): 62.5% and 100% and 87.5% and 98.2%
% Elimination ([2]; single oral dose 5 mg/kg): 100%
Number of remaining worms ([2]; single oral dose 5 mg/kg, autopsy 7 days): 0
Number of worms remaining in At autopsy ([3]; oral 1 mg/kg): 8750
Number of worms remaining in At autopsy ([3]; oral 5 mg/kg): 8317
number of worms remaining in the intestinal tract relative to the control infected group ([3]; oral 10 mg/kg): about half
Number of worms remaining in At autopsy ([3]; oral 10 mg/kg): 5333
Number of worms remaining ([4]; 1 ppm in feed for 3 weeks, autopsy): 49 and 96 and 83
Number of eggs before starting administration ([4]; 1 ppm in feed): > 300 and 172
% Elimination ([4]; 5 ppm in feed for 3 weeks): 86.1% and 56.9% and 62.5%
Number of eggs before starting administration ([4]; 5 ppm in feed): 300 and > 300 and 158
Number of worms eliminated ([4]; 10 ppm in feed for 3 weeks): 44 and 55 and 45
Number of eggs before starting administration ([4]; 10 ppm in feed): 300 and > 300 and 176
elimination [5]: 100%
hookworms eliminated ([5]; 7 days): Twelve
hookworms remaining ([5]; 7 days): no hookworms were found remaining
percent elimination ([6]; single oral dose 5 mg/kg): 39.4%
whipworms eliminated ([6]; single oral dose 5 mg/kg): 327
whipworms remaining ([6]; single oral dose 5 mg/kg): 504
elimination ([6]; single oral dose 10 mg/kg): 100%
whipworms eliminated ([6]; single oral dose 10 mg/kg): 22
whipworms remaining ([6]; single oral dose 10 mg/kg): none
